One data set deals with MCF-7 cells. Put plainly: MTT assay, MCF-7. It is filed as cell-based, human. The note with it: for IC50: Homo sapiens, MCF7, 72 h, estrogen dependent breast adenocarcinoma, read-out: Cytotoxic activity IC50, MCF-7; for Activity in MTT assay (in words), MCF-7: 72 h. The protocol: (§1) The cell lines used in the cytotoxicity study, besides MCF-12A, were purchased from European Collection of Cell Culture (ECACC, Salisbury, UK): HEK293 (human embryonic kidney, ATTC no. CRL-1573), A549 (Human lung carcinoma, ECACC no. 86012804), CCD39Lu (Human lung fibroblasts, ECACC no. 90110512), MCF-7 (Human breast adenocarcinoma, ECACC no. 86012803) and MDA-MB-231 (Human breast adenocarcinoma ECACC no. 92020424). Cell lines were cultured in DMEM medium without phenol red and supplemented with 10% (v/v) FBS, 1% penicillin-streptomycin and 1% L-glutamine. MCF-12A (ATTC no. […]) was purchased from American Type Culture Collection (ATCC Manassas, VA 20110 USA). MCF-12A cells were kept in 1:1 mixture of Dulbecco’s modified Eagle’s medium and Ham’s F12 medium, 20 ng/ml human epidermal growth factor, 100 ng/ml cholera toxin, 0.01 mg/ml bovine insulin, 500 ng/ml hydrocortisone and 5% horse serum. All cell lines were cultured at 37°C, in a humidified atmosphere containing 5% CO2.
(§2) Compounds were dissolved in DMSO to the final concentration of […]. A549, CCD39Lu, MCF-7, MDA-MB-231 and MCF-12A cells were seeded in 96 wells plates at density 2x10^4 cells/well and incubated overnight as described above. Subsequently, cells were treated with tested compounds at concentrations: 100 μM; 50 μM; 25μM; 12.5μM; 6 μM; 3 μM; 1.5 μM. […] Cells were incubated 72 h at 37°C in a humidified atmosphere containing 5% CO2 in the cell culture media appropriate for each cell line. Then, the medium was aspirated and 170 μl MTT solution (5mg/ml) was added to each well. Plates were incubated for 2 hours at 37°C, and then plates were centrifuged at 1200 rpm for 3 minutes. The formazan crystals were dissolved in 200 μl DMSO and plates were further agitated on a plate shaker at 300–500 rpm for 10 minutes. Absorbance at 570 nm (with reference wavelenght 650 nm) was measured using a plate reader (Biotek Instruments, Elx-800). Cell viability was calculated as a percentage relative to the control.
For orientation: Tetrazolium dyes change colour on reduction, which living cells bring about.

Another data set deals with MDA-MB-231 cells. Briefly: MTT assay, MDA-MB-231. Particulars: for IC50: Homo sapiens, MDA-MB-231, 72 h, estrogen independent breast adenocarcinoma, read-out: Cytotoxic activity IC50, MDA-MB-231. The class given is cell-based, human. The protocol: as §1, §2
Another data set can be described thus: MTT assay, MCF-12A. The class given is cell-based. The note with it: human, MCF-12A cells (non-tumorigenic breast epithelial), read-out: Cytotoxic activity IC50, MCF-12A. The protocol: as §1, §2
A further data set has as its system A549 cells. Put plainly: MTT assay, A549. The note with it: Homo sapiens, 72 h, lung adenocarcinoma, read-out: Cytotoxic activity IC50, A549. The class given is cell-based. The protocol: as §1, §2
The next data set is described as follows: MTT assay, CCD39Lu. Particulars: human, CCD39Lu cells (non-tumorigenic lung fibroblasts), read-out: Cytotoxic activity IC50, CCD39Lu. It is filed as cell-based. The protocol: as §1, §2
The next data set has as its target T1, human ERα receptor (Homo sapiens, UniProt P03372).
T1 construct: host or cells: HEK293
T1 sequence (P03372 1-595): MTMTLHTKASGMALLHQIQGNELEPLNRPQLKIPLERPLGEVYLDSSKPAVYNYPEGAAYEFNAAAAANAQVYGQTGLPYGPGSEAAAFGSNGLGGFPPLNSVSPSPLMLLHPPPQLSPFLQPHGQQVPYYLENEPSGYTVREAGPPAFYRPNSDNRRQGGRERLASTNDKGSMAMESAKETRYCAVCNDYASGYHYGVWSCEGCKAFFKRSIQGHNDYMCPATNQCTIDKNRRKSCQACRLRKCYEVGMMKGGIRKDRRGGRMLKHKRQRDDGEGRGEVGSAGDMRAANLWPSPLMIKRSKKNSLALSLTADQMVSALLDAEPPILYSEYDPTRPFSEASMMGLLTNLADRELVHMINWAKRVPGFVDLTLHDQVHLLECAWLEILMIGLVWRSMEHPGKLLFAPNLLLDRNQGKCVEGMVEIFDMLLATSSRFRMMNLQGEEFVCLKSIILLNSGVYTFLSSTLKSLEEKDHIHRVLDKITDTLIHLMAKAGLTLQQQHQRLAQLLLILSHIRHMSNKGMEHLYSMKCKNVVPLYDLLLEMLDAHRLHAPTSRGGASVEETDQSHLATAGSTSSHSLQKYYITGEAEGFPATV
Briefly: Estrogen Receptor luciferase assay in HEK293 cells transfected with ERα. The class given is cell-based. Particulars: HEK293 transfected with ERα and luciferase reporter, compared with estradiol, Fig 3A/3B. The source says: To obtain a eukaryotic vector expressing only the ER-α nuclear receptor, a construct was designed by cloning a KpnI-BamHI fragment from plasmid pEGFP-C1-ERα containing the ERα coding sequence that includes a stop signal into the pEGFP-N3 plasmid (Clontech Laboratories, Palo Alto, CA) under the control of the CMV promoter. This construction was termed pEGFP-N-ERα, and although it encoded both human ERα receptor and GFP protein, only the former is expressed. For mock transfections, pEGFP-N3 plasmid was digested with BglII and NotI and religated after polishing DNA ends to remove GFP coding sequence. Plasmid sequence was confirmed by automatic sequencing. Prior to transfection, cells were seeded in 48 well plates at density of 1.5 x 10^4 cells/well and incubated for 24 h to reach a cell confluence of 80–90%. […] MCF-7 cells, which endogenously express ERα receptor, were transfected with p3xERRE/ERE-luciferase plus the pRLTK Renilla luciferase control plasmid (95:5). Firefly and Renilla luciferase activities were measured using the Dual Luciferase Assay System (Promega, Madison, WI, USA), following a standard protocol using a Sirius L luminometer (Berthold Technologies, Bad Wildbad, Germany). Data were expressed as relative changes in luciferase activity and normalized to 100%.
In general terms: In a reporter assay the amount or activity of a reporter protein is the signal.

Turning to `COc1ccc(NC(=O)c2ccccc2[N+](=O)[O-])cc1` [Compound 1], the 50% inhibitory concentration (IC50) was found to be 74.9 µM in the data set on MCF-7 cells, 79.8 µM in the data set with MDA-MB-231 cells and 92.4 µM in the data set on A549 cells. Moreover, the IC50 at 72 h in “MTT assay, MCF-12A” is greater than 100 µM; in “MTT assay, CCD39Lu” it was 96.3 µM.
Take `COc1ccc(NC(=O)c2ccc(F)cc2[N+](=O)[O-])cc1` [Compound 2]: in the data set with MCF-7 cells, the “Activity in MTT assay (in words), MCF-7” value is given as “significant activity”. For the same compound, the results for the half-inhibitory concentration (IC50) with MCF-7 cells, with MDA-MB-231 cells and in the data set on A549 cells were 38.3 µM, 39.7 µM and 47.6 µM, respectively. In addition, the IC50 at 72 h in the data set “MTT assay, MCF-12A” is greater than 100 µM; in “MTT assay, CCD39Lu”, 45.2 µM. Moreover, on human ERα receptor, the “ER dependent transcriptional activity” value is listed as “did not stimulate ER dependent transcriptional activity”.
Turning to `COc1ccc(NC(=O)c2cc(Cl)ccc2[N+](=O)[O-])cc1` [Compound 3], the IC50 in the data set with MCF-7 cells, with MDA-MB-231 cells and in the data set with A549 cells was greater than 100 µM in each case. Besides, the IC50 at 72 h in the data set “MTT assay, MCF-12A” is greater than 100 µM; in “MTT assay, CCD39Lu”, greater than 100 µM.
As to `COc1ccc(NC(=O)c2ccc(OC)cc2[N+](=O)[O-])cc1` [Compound 4], the “Activity in MTT assay (in words), MCF-7” value in the data set with MCF-7 cells is listed as “significant activity”. Moreover, the IC50 came out at 28.4 µM with MCF-7 cells, 67 µM in the data set on MDA-MB-231 cells and 30.1 µM in the data set on A549 cells. In addition, the IC50 at 72 h in the data set “MTT assay, MCF-12A” was greater than 100 µM; in “MTT assay, CCD39Lu” it was 48.8 µM. Besides, at human ERα receptor, the “ER dependent transcriptional activity” value is reported as “did not stimulate ER dependent transcriptional activity”.
Turning to `COc1ccc(NC(=O)c2cc(C)c(C)cc2[N+](=O)[O-])cc1` [Compound 5], the concentration for half-maximal inhibition (IC50) in the data set with MCF-7 cells is greater than 100 µM; in the data set on MDA-MB-231 cells it was 92 µM; with A549 cells, greater than 100 µM. For the same compound, the IC50 at 72 h in “MTT assay, MCF-12A” was greater than 100 µM; in “MTT assay, CCD39Lu” it was greater than 100 µM.
On to `COc1cc(NC(=O)c2ccccc2[N+](=O)[O-])cc(OC)c1OC` [Compound 7], for which the IC50 with MCF-7 cells was greater than 100 µM; with MDA-MB-231 cells, greater than 100 µM; with A549 cells, 93.1 µM. Moreover, the IC50 at 72 h was greater than 100 µM in the data set “MTT assay, MCF-12A” and greater than 100 µM in “MTT assay, CCD39Lu”.
With `O=C(Nc1cc(F)c(F)c(F)c1)c1ccccc1[N+](=O)[O-]` [Compound 8], the IC50 in the data set with MCF-7 cells, in the data set on MDA-MB-231 cells and in the data set with A549 cells was greater than 100 µM in each case. Further, the 50% inhibitory concentration (IC50) at 72 h in “MTT assay, MCF-12A” is greater than 100 µM; in “MTT assay, CCD39Lu”, greater than 100 µM.
Consider `O=C(Nc1ccccc1C(=O)Nc1cc(F)c(F)c(F)c1)c1cc(F)c(F)c(F)c1` [Compound 9], for which the IC50 with MCF-7 cells, in the data set with MDA-MB-231 cells and in the data set on A549 cells was greater than 100 µM in each case. Moreover, the IC50 at 72 h in the data set “MTT assay, MCF-12A” was greater than 100 µM; in the data set “MTT assay, CCD39Lu” it was greater than 100 µM.
Turning to `Fc1cc(NC(=S)c2ccccc2NC(=S)c2cc(F)c(F)c(F)c2)cc(F)c1F` [Compound 10], in the data set on MCF-7 cells, the “Activity in MTT assay (in words), MCF-7” value is recorded as “significant activity”. Also, the IC50 in the data set with MCF-7 cells was 0.37 µM; with MDA-MB-231 cells, 0.52 µM; with A549 cells, 0.41 µM. For the same compound, the “Toxicity/effect in MTT assay (in words), MDA-MB-231” value in the data set on MDA-MB-231 cells (72 h) is listed as “significant degree of toxicity”. For the same compound, the IC50 at 72 h is 1.22 µM in the data set “MTT assay, MCF-12A” and 0.76 µM in “MTT assay, CCD39Lu”.
Consider `O=C(Nc1cc(F)c(F)c(F)c1F)c1ccccc1NC(=O)c1cc(F)c(F)c(F)c1F` [Compound 12], for which the half-maximal inhibitory concentration (IC50) in the data set on MCF-7 cells was greater than 100 µM; in the data set on MDA-MB-231 cells, 40.1 µM; in the data set with A549 cells, greater than 100 µM. Further, the IC50 at 72 h in the data set “MTT assay, MCF-12A” is greater than 100 µM; in “MTT assay, CCD39Lu” it was 61.4 µM. The “ER dependent transcriptional activity” value at human ERα receptor was “did not stimulate ER dependent transcriptional activity”.
Regarding `COc1cc(NC(=S)c2ccccc2NC(=S)c2cc(OC)c(OC)c(OC)c2)cc(OC)c1OC` [Compound 13], the half-maximal inhibitory concentration (IC50) with MCF-7 cells, in the data set with MDA-MB-231 cells and in the data set with A549 cells was greater than 100 µM in each case. In addition, the IC50 at 72 h in “MTT assay, MCF-12A” was greater than 100 µM; in “MTT assay, CCD39Lu”, greater than 100 µM.
As for `COc1cc(NC(=S)c2ccc(NC(=S)c3cc(OC)c(OC)c(OC)c3)cc2)cc(OC)c1OC` [Compound 16], the IC50 in the data set with MCF-7 cells was 69.8 µM; in the data set on MDA-MB-231 cells, 30 µM; with A549 cells, greater than 100 µM. Also, the IC50 at 72 h in the data set “MTT assay, MCF-12A” was greater than 100 µM; in the data set “MTT assay, CCD39Lu” it was 6.48 µM. In addition, the “ER dependent transcriptional activity” value on human ERα receptor was “did not stimulate ER dependent transcriptional activity”.
`COc1ccc(NC(=O)c2ccc(NC(=O)c3ccc(OC)cc3)cc2)cc1` [Compound 17]: the IC50 with MCF-7 cells, in the data set on MDA-MB-231 cells and with A549 cells was greater than 100 µM each time. Also, the IC50 at 72 h was greater than 100 µM in “MTT assay, MCF-12A” and greater than 100 µM in “MTT assay, CCD39Lu”.
Regarding `COc1ccc(NC(=O)c2ccccc2NC(=O)COC(C)=O)cc1` [Compound 19], the IC50 is greater than 100 µM in the data set on MCF-7 cells, greater than 100 µM in the data set on MDA-MB-231 cells and 72.4 µM in the data set on A549 cells. Further, the IC50 at 72 h was greater than 100 µM in “MTT assay, MCF-12A” and 47.9 µM in the data set “MTT assay, CCD39Lu”.
Take `COc1cc(NC(=S)c2cccc(NC(=S)c3cc(OC)c(OC)c(OC)c3)c2)cc(OC)c1OC` [Compound 20]: the IC50 in the data set with MCF-7 cells, in the data set with MDA-MB-231 cells and in the data set with A549 cells was greater than 100 µM each time. In addition, the IC50 at 72 h in the data set “MTT assay, MCF-12A” was greater than 100 µM; in the data set “MTT assay, CCD39Lu” it was greater than 100 µM.

A word on the IC50: it is the midpoint of a concentration-inhibition curve.
